Measured values taken from the supplement of paper PMC10307832.

Assays:
Assay in all cases: relative viability (nuclei count vs DMSO), 5 days (fraction); higher = more cells survive
Selisistat + Luminespib = compound: C1CC(C2=C(C1)C3=C(N2)C=CC(=C3)Cl)C(=O)N [Selisistat] + CCNC(=O)c1noc(-c2cc(C(C)C)c(O)cc2O)c1-c1ccc(CN2CCOCC2)cc1 [Luminespib] (partner 0.01 µM)
Method in brief: (§1)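 Nuclei were stained with Hoechst during a one-step fixation (final 0.05% Triton X-100, 1% formaldehyde, 1 ug/ml Hoechst) carried out 5 days after dosing, then counted on 4× images. The cells, lung cancer lines in 1536-well plates, had been dosed by pin tool the day after seeding with one drug alone or a fixed anchor-drug dose plus five library-drug doses (not always all listed) in √10 steps. Relative viability is the nuclei count in treated wells divided by that in vehicle wells, and each value is the median of duplicate plates.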

Selisistat + Crizotinib = compound: C1CC(C2=C(C1)C3=C(N2)C=CC(=C3)Cl)C(=O)N [Selisistat] + C[C@@H](Oc1cc(-c2cnn(C3CCNCC3)c2)cnc1N)c1c(Cl)ccc(F)c1Cl [Crizotinib] (partner 1 µM)
Method in brief: as §1

Selisistat + Pemetrexed = compound: C1CC(C2=C(C1)C3=C(N2)C=CC(=C3)Cl)C(=O)N [Selisistat] + Nc1nc2[nH]cc(CCc3ccc(C(=O)N[C@@H](CCC(=O)O)C(=O)O)cc3)c2c(=O)[nH]1 [Pemetrexed] (partner 0.2 µM)
Method in brief: as §1

Serdemetan + OSI-027 = compound: c1ccc2c(CCNc3ccc(Nc4ccncc4)cc3)c[nH]c2c1 [Serdemetan] + COc1cccc2cc(-c3nc([C@H]4CC[C@H](C(=O)O)CC4)n4ncnc(N)c34)[nH]c12 [OSI-027] (partner 0.5 µM)
Method in brief: as §1

Cell Line | relative viability (Selisistat + Luminespib; first compound 0.4 µM) | relative viability (Selisistat + Luminespib; first compound 1.265 µM) | relative viability (Selisistat + Luminespib; first compound 4 µM) | relative viability (Selisistat + Luminespib; first compound 12.65 µM) | relative viability (Selisistat + Luminespib; first compound 40 µM) | relative viability (Selisistat + Crizotinib; first compound 0.4 µM) | relative viability (Selisistat + Crizotinib; first compound 1.265 µM) | relative viability (Selisistat + Crizotinib; first compound 4 µM) | relative viability (Selisistat + Crizotinib; first compound 12.65 µM) | relative viability (Selisistat + Crizotinib; first compound 40 µM) | relative viability (Selisistat + Pemetrexed; first compound 0.4 µM) | relative viability (Selisistat + Pemetrexed; first compound 1.265 µM) | relative viability (Selisistat + Pemetrexed; first compound 4 µM) | relative viability (Selisistat + Pemetrexed; first compound 12.65 µM) | relative viability (Selisistat + Pemetrexed; first compound 40 µM) | relative viability (Serdemetan + OSI-027; first compound 0.04 µM) | relative viability (Serdemetan + OSI-027; first compound 0.1265 µM) | relative viability (Serdemetan + OSI-027; first compound 1.265 µM) | relative viability (Serdemetan + OSI-027; first compound 4 µM) | relative viability (Serdemetan + OSI-027; first compound 0.4 µM)
HCC-827 | 0.619 | 0.6 | 0.482 | 0.575 | 0.832 | 0.954 | 0.873 | 0.946 | 0.838 | 0.883 | 0.258 | 0.266 | 0.266 | 0.256 | 0.251 | 0.787 | 0.743 | 0.696 | 0.627 | 
HOP-62 | 0.951 | 0.967 | 0.886 | 0.88 | 1.01 | 0.682 | 0.957 | 1.09 | 0.801 | 0.988 | 0.327 | 0.284 | 0.448 | 0.284 | 0.488 | 0.869 | 0.842 | 0.71 | 0.758 | 0.856
IA-LM |  |  |  |  |  | 0.646 | 0.759 | 1.2 |  | 0.869 |  |  |  |  |  |  |  |  |  | 
LC-2-ad | 1.13 |  | 1.02 | 1 | 1.06 | 0.468 |  | 0.42 | 0.433 | 0.433 | 0.263 | 0.268 | 0.268 | 0.285 | 0.261 | 0.716 | 0.85 | 0.659 | 0.763 | 0.877
LCLC-97TM1 | 0.74 | 0.679 |  | 0.619 | 0.724 | 0.327 | 0.308 | 0.637 | 0.393 | 0.498 | 0.153 | 0.177 |  | 0.155 | 0.206 | 0.371 | 0.553 |  | 0.528 | 0.412
LCLC-103H | 1.06 | 0.936 | 0.926 | 0.863 | 1.06 | 1.08 | 0.991 | 0.996 | 0.999 | 1.07 | 0.42 | 0.473 | 0.469 | 0.509 | 0.529 | 0.431 | 0.551 | 0.537 | 0.406 | 0.479
LK-2 | 0.193 | 0.161 | 0.182 | 0.198 | 0.188 | 0.234 | 0.255 | 0.245 | 0.231 | 0.24 | 0.271 | 0.32 | 0.232 | 0.265 | 0.252 | 0.205 | 0.23 | 0.193 | 0.214 | 0.216
LOU-NH91 | 0.269 | 0.322 | 0.348 | 0.336 | 0.406 | 0.766 | 0.664 | 0.683 | 0.729 | 0.738 | 0.329 | 0.339 | 0.42 | 0.395 | 0.459 | 0.703 | 0.681 | 0.692 | 0.784 | 0.456
LU99A | 0.258 | 0.214 | 0.301 | 0.291 | 0.223 | 0.568 | 0.438 | 0.662 | 0.493 | 0.677 | 0.169 | 0.176 | 0.21 | 0.184 | 0.163 | 0.282 | 0.313 | 0.216 | 0.29 | 0.275
LXF-289 | 0.601 | 0.565 | 0.696 | 0.686 | 0.673 | 0.853 | 0.803 | 0.786 | 0.709 | 0.805 | 0.925 | 1.04 | 0.83 | 0.841 | 0.959 | 0.802 | 0.847 | 0.691 | 0.729 | 0.811
NCI-H23 | 0.188 | 0.203 |  | 0.204 | 0.197 | 0.515 | 0.474 |  | 0.468 | 0.473 | 0.649 | 0.742 |  | 0.619 | 0.595 | 0.636 | 0.702 | 0.43 | 0.531 | 0.607
NCI-H322M | 0.875 | 0.82 | 0.562 | 0.868 | 0.812 | 0.959 | 1.01 |  | 0.903 | 1.15 | 0.558 | 0.633 |  | 0.515 | 0.618 | 0.52 | 0.56 | 0.509 | 0.422 | 0.681
NCI-H522 | 1.07 | 1.1 | 0.789 | 1.17 | 1.08 |  |  |  |  |  | 1.03 | 0.646 | 0.781 | 0.94 | 1.1 | 0.814 | 0.704 |  | 0.712 | 0.887
NCI-H727 | 0.389 | 0.231 |  | 0.268 | 0.349 | 0.823 | 0.816 |  |  | 0.729 |  |  |  |  |  | 0.69 | 0.681 | 0.466 | 0.499 | 0.567
NCI-H1299 |  |  |  |  |  | 0.944 | 1 | 0.946 | 0.944 | 1 |  |  |  |  |  |  |  |  |  | 
NCI-H1395 | 0.871 | 0.682 | 0.702 | 0.66 | 0.455 |  |  |  |  |  | 0.97 | 0.968 |  | 0.639 | 0.908 | 0.526 | 0.637 | 0.651 | 0.418 | 0.734
NCI-H1648 |  |  |  |  |  |  |  |  |  |  | 0.562 | 0.584 |  | 0.599 | 0.743 |  | 0.255 | 0.195 | 0.256 | 0.335
NCI-H1703 |  |  |  |  |  | 0.578 | 0.556 | 0.626 | 0.559 | 0.904 |  |  |  |  |  |  |  |  |  | 
NCI-H1793 | 0.185 | 0.166 |  | 0.217 | 0.234 |  |  |  |  |  | 1.06 | 0.824 |  | 1.03 | 0.867 | 0.385 | 0.251 | 0.186 | 0.179 | 0.236
NCI-H2342 | 0.725 | 0.668 | 0.625 | 0.923 | 0.742 |  |  |  |  |  | 0.806 | 0.756 | 0.677 | 0.77 | 0.769 | 0.66 | 0.648 | 0.666 | 0.512 | 0.731
SW 900 | 0.175 | 0.175 | 0.179 | 0.16 | 0.177 |  |  |  |  |  | 0.468 | 0.464 | 0.461 | 0.517 | 0.46 | 0.757 | 0.602 | 0.381 | 0.37 | 0.632
